Laboratory results: US20240287138A1, “CYCLIC PEPTIDES FOR INHIBITING TNF RECEPTOR 1 ACTIVITY” (Merck Sharp & Dohme LLC, priority 2023, published 2024)
Numbered stars: 1 amine (or outer) side, 2 acyl side, 3 side chain; on linkers, the order of the positions; unused ones are H or OH. Square brackets hold non-standard residues; d marks the D form. Peptide text beside a SMILES is read from it. Trp(βS-Me,7-OMe) = COc1cccc2c([C@H](C)[C@H](N)C(=O)O)c[nH]c12; X50 = C[C@@H](c1ccc(C(=O)O)cc1)[C@H](N[*:1])C(=O)[*:2]; Phe(2-F,4-COOH) = N[C@@H](Cc1ccc(C(=O)O)cc1F)C(=O)O; Phe(4-CH2COOH) = N[C@@H](Cc1ccc(CC(=O)O)cc1)C(=O)O; Trp(7-CN) = N#Cc1cccc2c(C[C@H](N)C(=O)O)c[nH]c12; Trp(7-Cl) = N[C@@H](Cc1c[nH]c2c(Cl)cccc12)C(=O)O; X43 = O=C(O)[C@H]1CC[C@@H](C(=O)[*:2])N([*:1])C1; Phe(4-CONH2) = NC(=O)c1ccc(C[C@H](N)C(=O)O)cc1; Phe(4-COOH) = N[C@@H](Cc1ccc(C(=O)O)cc1)C(=O)O; Ala(4-Pyridazinyl) = N[C@@H](Cc1ccnnc1)C(=O)O; Trp(7-aza) = N[C@@H](Cc1c[nH]c2ncccc12)C(=O)O; 3Pal(6-OMe) = COc1ccc(C[C@H](N)C(=O)O)cn1; Pip(5R-OH) = O=C(O)[C@@H]1CC[C@@H](O)CN1; X1 = O=C([C@@H]1CC[C@H](N[*:1])C1)[*:2]; Pip(4-aza) = O=C(O)[C@@H]1CNCCN1; 4Pal = N[C@@H](Cc1ccncc1)C(=O)O; NMeE = CN[C@@H](CCC(=O)O)C(=O)O; dHyp = O=C(O)[C@H]1C[C@H](O)CN1; Cit = NC(=O)NCCC[C@H](N)C(=O)O; αMeS = C[C@](N)(CO)C(=O)O; Nle = CCCC[C@H](N)C(=O)O; Sar = CNCC(=O)O

What follows are molecules tested against T1, TNFα-induced NF-κB signal transduction pathway (TNFR1 signaling) in THP-1 cells (Homo sapiens, UniProt P19438) (assay: THP-1 Lucia NF-κB reporter cell assay, inhibition of TNFα-induced NF-κB signaling). Conditions: THP-1 NF-κB Lucia reporter cells, 10 ng/mL TNFα, 16-18 h, secreted luciferase; read-out: THP-1 IC50.
T1 sequence (P19438 30-455): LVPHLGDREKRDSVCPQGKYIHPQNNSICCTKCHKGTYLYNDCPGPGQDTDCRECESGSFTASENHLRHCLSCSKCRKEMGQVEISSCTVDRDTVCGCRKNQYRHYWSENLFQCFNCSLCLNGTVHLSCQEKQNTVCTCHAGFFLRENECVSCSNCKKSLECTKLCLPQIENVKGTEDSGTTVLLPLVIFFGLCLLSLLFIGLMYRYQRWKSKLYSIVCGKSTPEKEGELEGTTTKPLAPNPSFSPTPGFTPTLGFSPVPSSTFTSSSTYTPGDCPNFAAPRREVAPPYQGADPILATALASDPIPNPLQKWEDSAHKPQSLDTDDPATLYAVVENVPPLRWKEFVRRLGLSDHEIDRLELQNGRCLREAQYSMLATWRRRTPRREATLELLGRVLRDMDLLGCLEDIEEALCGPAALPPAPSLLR
Assay type: cell-based
Experimental: C. Procedure for THP-1 Lucia NF-κB cells
The inhibition of TNFα-induced NF-κB signal transduction pathways was evaluated in THP-1 cells. THP-1 cells harboring NF-κB-inducible Lucia™ reporter gene (InvivoGen, cat. #thp1-nfkb) designed for monitoring NF-κB signal transduction pathway was employed to assess the inhibitory effect macrocyclic peptides on TNFR1 signaling. The cells were cultured in media containing RPMI 1640, 2 mM L-glutamine, 25 mM HEPES, 10% heat-inactivated fetal bovine serum with appropriate selection antibiotics. Assays were performed in media that was devoid of selection antibiotics. For profiling, 125 nL of peptides in DMSO (10 mM) were dispensed into Falcon® 384-well Optilux white/clear flat bottom TC-treated microtest microplate (Corning, cat. #353963) using Echo® 555. […] A suspension of 1 million cells/mL was dispensed at 20 μL/well in a 384-well plate to a density of 20,000 cells/well and pre-incubated with peptides at 37° C. for 1 h. Subsequently, 5 μL of TNF containing media (recombinant human TNFα; R&D Systems USA, cat. #210-TA-005/CF) or TNF-free media (for controls) was added to the wells. The final concentration of TNFα in the assay in 10 ng/mL. After o.n. incubation at 37° C. (16-18 h), 5 μL of supernatant was aspirated and transferred to a 384-well microplate (PerkinElmer, cat. #6007680) for measurement of secreted luciferase activity with 25 μL of QUANTI-Luc™ luminescence assay reagent (InvivoGen, cat. #rep-qlc1) in each well. The luminescence was measured in EnVision® Multimode Plate Reader (PerkinElmer). Dose response curves were analyzed using a 4-parameter logistic model to calculate IC50 values, reported in Table 2, using TIBCO® Spotfire® software employing appropriate Minimum and Maximum controls.

| Compound | IC50 |
| --- | --- |
| CCCC[C@@H]1NC(=O)[C@@H]2CC[C@@H](C2)NC(=O)[C@H]([C@@H](C)c2c[nH]c3c(OC)cccc23)NC(=O)CN(C)C(=O)[C@H](Cc2ccc(O)cc2)NC(=O)[C@H](Cc2ccc(C(=O)O)cc2)NC(=O)[C@](C)(CO)NC(=O)[C@H](Cc2c[nH]c3c(Cl)cccc23)NC(=O)[C@H](Cc2ccc(OC)nc2)NC(=O)[C@H](CC(N)=O)NC(=O)[C@H](CCC(=O)O)N(C)C(=O)[C@H](Cc2c[nH]c3ccccc23)NC(=O)[C@@H]2CNCCN2C(=O)[C@H](Cc2ccncc2)NC1=O [SEQ ID NO. 100] (cyclo([4Pal][Pip(4-aza)]W[NMeE]N[3Pal(6-OMe)][Trp(7-Cl)][αMeS][Phe(4-COOH)]Y[Sar][Trp(βS-Me,7-OMe)][X1][Nle])) | 1.3 nM |
| CCCC[C@@H]1NC(=O)[C@@H]2CC[C@@H](C2)NC(=O)[C@H]([C@@H](C)c2c[nH]c3c(OC)cccc23)NC(=O)CN(C)C(=O)[C@H](Cc2ccc(C(=O)O)cc2)NC(=O)[C@H](Cc2ccc(C(N)=O)cc2)NC(=O)[C@](C)(CO)NC(=O)[C@H](Cc2c[nH]c3c(Cl)cccc23)NC(=O)[C@H](Cc2ccc(C(=O)O)cc2)NC(=O)[C@H](CC(N)=O)NC(=O)[C@H]2C[C@H](O)CN2C(=O)[C@H](Cc2c[nH]c3ccccc23)NC(=O)[C@@H]2CC[C@@H](O)CN2C(=O)[C@H](Cc2ccnnc2)NC1=O [SEQ ID NO. 105] (cyclo(N[Phe(4-COOH)][Trp(7-Cl)][αMeS][Phe(4-CONH2)][Phe(4-COOH)][Sar][Trp(βS-Me,7-OMe)][X1][Nle][Ala(4-Pyridazinyl)][Pip(5R-OH)]W[dHyp])) | 0.7 nM |
| CCCC[C@@H]1NC(=O)[C@@H]2CC[C@@H](C2)NC(=O)[C@H]([C@@H](C)c2c[nH]c3c(OC)cccc23)NC(=O)CN(C)C(=O)[C@H](Cc2ccc(O)cc2)NC(=O)[C@H](Cc2ccc(C(=O)O)cc2)NC(=O)[C@](C)(CO)NC(=O)[C@H](Cc2c[nH]c3c(Cl)cccc23)NC(=O)[C@H](Cc2ccc(C(=O)O)cc2F)NC(=O)[C@H](CC(N)=O)NC(=O)[C@H](CCC(=O)O)N(C)C(=O)[C@H](Cc2c[nH]c3ccccc23)NC(=O)[C@@H]2CNCCN2C(=O)[C@H](Cc2ccncc2)NC1=O [SEQ ID NO. 108] (cyclo([4Pal][Pip(4-aza)]W[NMeE]N[Phe(2-F,4-COOH)][Trp(7-Cl)][αMeS][Phe(4-COOH)]Y[Sar][Trp(βS-Me,7-OMe)][X1][Nle])) | 1.2 nM |
| CCCC[C@@H]1NC(=O)[C@@H]2CC[C@@H](C2)NC(=O)[C@H]([C@@H](C)c2c[nH]c3c(OC)cccc23)NC(=O)CN(C)C(=O)[C@H](Cc2ccc(O)cc2)NC(=O)[C@H](Cc2ccc(CC(=O)O)cc2)NC(=O)[C@](C)(CO)NC(=O)[C@H](Cc2c[nH]c3c(Cl)cccc23)NC(=O)[C@H](Cc2ccncc2)NC(=O)[C@H](CC(N)=O)NC(=O)[C@H](CCC(=O)O)N(C)C(=O)[C@H](Cc2c[nH]c3ccccc23)NC(=O)[C@@H]2CNCCN2C(=O)[C@H](Cc2ccncc2)NC1=O [SEQ ID NO. 111] (cyclo([4Pal][Trp(7-Cl)][αMeS][Phe(4-CH2COOH)]Y[Sar][Trp(βS-Me,7-OMe)][X1][Nle][4Pal][Pip(4-aza)]W[NMeE]N)) | 1.6 nM |
| CCCC[C@@H]1NC(=O)[C@@H]2CC[C@@H](C2)NC(=O)[C@H]([C@@H](C)c2c[nH]c3c(OC)cccc23)NC(=O)CN(C)C(=O)[C@H](Cc2ccc(C(N)=O)cc2)NC(=O)[C@H](Cc2ccc(C(N)=O)cc2)NC(=O)[C@](C)(CO)NC(=O)[C@H](Cc2c[nH]c3c(C#N)cccc23)NC(=O)[C@H](Cc2ccc(C(=O)O)cc2)NC(=O)[C@H](CC(N)=O)NC(=O)[C@H]2C[C@H](O)CN2C(=O)[C@H](Cc2c[nH]c3ncccc23)NC(=O)[C@H](CCCNC(N)=O)NC(=O)[C@H]([C@@H](C)c2ccc(C(=O)O)cc2)NC1=O [SEQ ID NO. 118] (cyclo([Cit][Trp(7-aza)][dHyp]N[Phe(4-COOH)][Trp(7-CN)][αMeS][Phe(4-CONH2)][Phe(4-CONH2)][Sar][Trp(βS-Me,7-OMe)][X1][Nle][X50])) | 2.8 nM |
| CCCC[C@@H]1NC(=O)[C@@H]2CC[C@@H](C2)NC(=O)[C@H]([C@@H](C)c2c[nH]c3c(OC)cccc23)NC(=O)CN(C)C(=O)[C@H](Cc2ccc(O)cc2)NC(=O)[C@H](Cc2ccc(C(=O)O)cc2)NC(=O)[C@](C)(CO)NC(=O)[C@H](Cc2c[nH]c3c(Cl)cccc23)NC(=O)[C@H](Cc2ccncc2)NC(=O)[C@H](CC(N)=O)NC(=O)[C@H](CCC(=O)O)N(C)C(=O)[C@H](Cc2c[nH]c3ccccc23)NC(=O)[C@@H]2CC[C@H](C(=O)O)CN2C(=O)[C@H](Cc2ccncc2)NC1=O [SEQ ID NO. 120] (cyclo([4Pal][Trp(7-Cl)][αMeS][Phe(4-COOH)]Y[Sar][Trp(βS-Me,7-OMe)][X1][Nle][4Pal][X43]W[NMeE]N)) | 1.4 nM |
